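A five-concentration, 48-hour dose response in 96-well plates underlies each endpoint, interpolated linearly between surrounding concentrations. Here, GI50 denotes the concentration required for 50% inhibition of growth. Definition used: TGI = concentration required for complete inhibition of growth.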
Key:
Experiment in all cases: DTP human tumour cell line panel, 48 h
[1] = tested on: TK-10 renal
[2] = tested on: OVCAR-4 ovarian
[3] = tested on: HCC-2998 colon
[4] = tested on: MOLT-4 leukemia
[5] = tested on: SF-268 CNS
[6] = tested on: SK-MEL-5 melanoma
[7] = tested on: SF-295 CNS
[8] = tested on: RPMI-8226 leukemia
[9] = tested on: NCI/ADR-RES ovarian
[10] = tested on: HCT-15 colon

SMILES | TGI [1] | TGI [2] | TGI [3] | TGI [4] | TGI [5] | TGI [6] | TGI [7] | TGI [8] | TGI [9] | TGI [10] | GI50 [1] | GI50 [9] | GI50 [10] | GI50 [8] | GI50 [4] | GI50 [5] | GI50 [6] | GI50 [7] | GI50 [2] | GI50 [3]
CCOC(=N)CC(=O)Nc1cccc(C)c1C | > 100 µM | > 100 µM | > 100 µM | 7.46 µM | > 100 µM | > 100 µM | > 100 µM | – | – | – | – | – | – | – | – | – | – | – | – | –
CC1(C)O/C(=C\c2ccccc2)C(=O)/C(=C/c2ccccc2)O1 | > 100 µM | > 100 µM | – | 43.9 µM | > 100 µM | 27.9 µM | > 100 µM | 54.6 µM | – | – | – | – | – | – | – | – | – | – | – | –
CC(C)CNC(=O)O | > 100 µM | > 100 µM | – | > 100 µM | > 100 µM | > 100 µM | > 100 µM | > 100 µM | > 100 µM | > 100 µM | – | – | – | – | – | – | – | – | – | –
COC(=O)CCC(=O)CC1CC(=O)C2CCCN12 (stereo not given) | > 100 µM | > 100 µM | > 100 µM | > 100 µM | > 100 µM | > 100 µM | > 100 µM | > 100 µM | – | – | – | – | – | – | – | – | – | – | – | –
Nc1nc(CCl)nc(Nc2ccccc2)n1 | 83.4 µM | 32.1 µM | 31.7 µM | 37.2 µM | 45.2 µM | 36.5 µM | 81.7 µM | 19.8 µM | – | – | – | – | – | – | – | – | – | – | – | –
COc1ccc(C2c3cc(OC)c(OC)cc3C(Cc3ccc([N+](=O)[O-])cc3)C2c2ccc([N+](=O)[O-])cc2)cc1OC (stereo not given) | > 100 µM | > 100 µM | > 100 µM | > 100 µM | > 100 µM | > 100 µM | > 100 µM | > 100 µM | – | > 100 µM | – | – | – | – | – | – | – | – | – | –
C=C1C(=O)O[C@H]2/C=C(/C)C3=CC(=O)[C@@](C)(C[C@@H](OC(=O)/C(C)=C\C)C12)O3 (stereo not given in full) | 1.6 µM | > 26.5 µM | 3.28 µM | 6.01 µM | > 46.5 µM | > 35.3 µM | 29.3 µM | – | – | 1.45 µM | – | – | – | – | – | – | – | – | – | –
O=S1OC2(c3ccccc3-c3ccccc32)c2ccccc21 (stereo not given) | > 100 µM | > 100 µM | > 100 µM | > 100 µM | – | > 100 µM | > 100 µM | > 100 µM | – | > 100 µM | – | – | – | – | – | – | – | – | – | –
COc1ccc(-c2c[nH]c(=S)n2-c2ccc(OC)cc2)cc1 | > 50 µM | – | – | > 50 µM | > 50 µM | > 50 µM | > 50 µM | > 50 µM | > 50 µM | > 50 µM | > 50 µM | > 50 µM | > 50 µM | 20.4 µM | > 50 µM | > 50 µM | > 50 µM | > 50 µM | – | –
CN1NC(=Nc2ccccc2)Sc2c1cnn(-c1ccccc1)c2=O | > 100 µM | > 100 µM | > 100 µM | > 100 µM | – | – | > 100 µM | > 100 µM | – | > 100 µM | – | – | – | – | – | – | – | – | – | –
CN(C)C(=S)/N=c1\ss/c(=N\C(=S)N(C)C)n1-c1ccc(Cl)c(Cl)c1 | > 100 µM | > 100 µM | > 100 µM | > 100 µM | > 100 µM | > 100 µM | > 100 µM | > 100 µM | – | > 100 µM | – | – | – | – | – | – | – | – | – | –
C[n+]1cc(C(O)c2ccc3c(c2)OCO3)c2ccccc2c1 (stereo not given) | > 100 µM | – | > 100 µM | 55.5 µM | > 100 µM | 44.2 µM | > 100 µM | 98.8 µM | – | > 100 µM | – | – | – | – | – | – | – | – | – | –
N#CC(=NCCO)C1=C(O)c2ccccc2C1=O | > 100 µM | > 100 µM | – | > 100 µM | > 100 µM | > 100 µM | > 100 µM | > 100 µM | > 100 µM | > 100 µM | – | – | – | – | – | – | – | – | – | –
Cc1cc(C)c(C2[C@H]3C(=O)N(c4ccc(Cc5ccc(N6C(=O)[C@@H]7ON(c8ccccc8)C(c8c(C)cc(C)cc8C)[C@@H]7C6=O)cc5)cc4)C(=O)[C@H]3ON2c2ccccc2)c(C)c1 (stereo not given in full) | > 100 µM | > 100 µM | > 100 µM | > 100 µM | > 100 µM | > 100 µM | > 100 µM | > 100 µM | – | > 100 µM | – | – | – | – | – | – | – | – | – | –
COC(=O)/C(C)=C/[N+](=O)[O-] | 31.1 µM | 33.5 µM | 32.1 µM | 39.4 µM | 51.6 µM | 47.3 µM | 30.3 µM | 7.36 µM | – | 34.4 µM | – | – | – | – | – | – | – | – | – | –
Cc1ccc(S(=O)(=O)NCCNc2nccc(-c3c(-c4ccc(F)cc4)nc4sccn34)n2)cc1 | 42.6 µM | 46.7 µM | > 100 µM | – | 37.4 µM | > 100 µM | 77.1 µM | – | > 100 µM | – | 7.8 µM | 4.83 µM | – | – | – | 5.58 µM | 3.52 µM | 12.6 µM | 4.98 µM | > 100 µM
Cc1cc(S(=O)(=O)N/N=C(\Sc2cc(Cl)c(C)cc2S(N)(=O)=O)c2ccc(Cl)cc2)c(Cl)cc1Cl | > 100 µM | > 100 µM | – | > 100 µM | > 100 µM | > 100 µM | > 100 µM | 86.4 µM | > 100 µM | > 100 µM | > 100 µM | > 100 µM | > 100 µM | 27.3 µM | 48.3 µM | > 100 µM | > 100 µM | > 100 µM | 63.1 µM | –
CN[C@@H](C)[C@H](NC)c1ccccc1 | > 100 µM | – | > 100 µM | > 100 µM | – | > 100 µM | > 100 µM | > 100 µM | – | > 100 µM | – | – | – | – | – | – | – | – | – | –
Cc1cc2c(cc1Cl)SC(=Nc1ccc(Cl)cc1)N(S(=O)(=O)c1ccccc1)S2(=O)=O | 24.6 µM | 64.3 µM | – | – | 34.8 µM | 19.2 µM | 32.6 µM | 14.7 µM | 19.3 µM | 13 µM | 11.9 µM | 5.25 µM | 2.77 µM | 2.67 µM | – | 13.8 µM | 6.82 µM | 13.2 µM | 11 µM | –
O=C1c2ccc3c4ccccc4n(Cc4ccccc4)c3c2C(=O)N1c1ccccc1 | 29 µM | 23.1 µM | 37.2 µM | 9.54 µM | 40.8 µM | 29.9 µM | 28.3 µM | 40.1 µM | – | 22.7 µM | – | – | – | – | – | – | – | – | – | –
